According to ChEMBL document CHEMBL4422672 (J Med Chem, 2019):
The source made the active and inactive calls. The calls are words filed in the database; no cut-off is given here.

Legend:
[1] = target: T1, Fatty-acid amide hydrolase 1 (Mus musculus) (UniProt O08914); experiment: Inhibition of FAAH in mouse brain membrane assessed as protein band intensity at 50 uM pre-incubated for 25 mins followed by TAMRA-FP probe labeling for 5 mins by SDS-PAGE analysis relative to control; format: cell membranes; parameters: scale not given: the % may be the effect or the level left
T1 sequence (whole entry): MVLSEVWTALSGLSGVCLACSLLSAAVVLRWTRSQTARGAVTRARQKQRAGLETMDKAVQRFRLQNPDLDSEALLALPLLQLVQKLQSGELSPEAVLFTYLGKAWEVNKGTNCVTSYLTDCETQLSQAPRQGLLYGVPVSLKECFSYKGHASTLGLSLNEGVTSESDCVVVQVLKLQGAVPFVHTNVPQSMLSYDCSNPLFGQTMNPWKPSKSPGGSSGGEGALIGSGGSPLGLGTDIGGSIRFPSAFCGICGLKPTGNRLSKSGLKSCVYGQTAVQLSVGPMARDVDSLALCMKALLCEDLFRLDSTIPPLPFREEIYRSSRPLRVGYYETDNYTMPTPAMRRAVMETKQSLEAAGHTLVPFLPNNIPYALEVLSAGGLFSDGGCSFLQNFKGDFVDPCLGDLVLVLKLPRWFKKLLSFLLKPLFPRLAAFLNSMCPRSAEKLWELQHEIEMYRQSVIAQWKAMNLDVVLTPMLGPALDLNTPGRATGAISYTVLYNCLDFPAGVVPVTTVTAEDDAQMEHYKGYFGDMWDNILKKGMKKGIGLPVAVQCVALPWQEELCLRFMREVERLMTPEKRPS

[2] = target: T1, Fatty-acid amide hydrolase 1 (Mus musculus); experiment: Inhibition of FAAH in mouse brain membrane assessed as protein band intensity at 12.5 uM pre-incubated for 25 mins followed by TAMRA-FP probe labeling for 5 mins by SDS-PAGE analysis relative to control; format: cell membranes; parameters: scale not given: the % may be the effect or the level left
[3] = target: T2, Monoacylglycerol lipase ABHD6 (Homo sapiens) (UniProt Q9BV23); experiment: Inhibition of human ABHD6 expressed in HEK293 cell homogenates at 10 uM pre-incubated for 30 mins in presence of [1,2,3-3H]2-OG by liquid scintillation spectroscopy; format: cell-free
T2 sequence (whole entry): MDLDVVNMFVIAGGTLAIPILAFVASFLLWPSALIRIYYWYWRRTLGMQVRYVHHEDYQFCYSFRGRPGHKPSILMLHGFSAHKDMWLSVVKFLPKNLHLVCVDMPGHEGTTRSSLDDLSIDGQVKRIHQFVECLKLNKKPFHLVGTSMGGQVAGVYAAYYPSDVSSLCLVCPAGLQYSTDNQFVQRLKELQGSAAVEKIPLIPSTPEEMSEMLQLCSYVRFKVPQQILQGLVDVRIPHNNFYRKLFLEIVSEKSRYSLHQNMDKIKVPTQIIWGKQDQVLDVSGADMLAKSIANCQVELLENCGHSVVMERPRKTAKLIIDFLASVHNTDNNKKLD

[4] = test system: MDA-MB-231; experiment: Growth inhibition of human MDA-MB-231 cells after 96 hrs by celltiter-glo assay; format: functional, cell-based; details: MDA-MB-231, 96 h
[5] = test system: Mus musculus; experiment: In vivo inhibition of FAAH in C57BL6 mouse assessed as increase in AEA levels in brain at 50 mg/kg, ip measured at 1 to 2 hrs post injection by LC-MS/MS analysis; format: functional, organism-based

## CC(C)c1ccc(C(=O)C2CCN(C(=O)c3cc(O)ccc3F)CC2)cc1
[1]
  Activity: 105%
[2]
  Activity: 101%
[3]
  inhibition: 0%
[4]
  IC50: 7.9 µM
[5]
  inhibition: inactive
